Measurements as given in paper PMC7413254 (Nature Communications, 2020).

Columns and labels:
Assay type in all cases: cell-based
[1] = molecular target: T1, PfCRT^Ecu1110 (Plasmodium falciparum, UniProt Q9N623, A220S/I356L/K76T/N326D); experiment: cell-based; details: for PfCRT-mediated [3H]CQ transport, trans-stimulation (% PfCRTEcu1110 control): PfCRTEcu1110 oocytes, normalised to oocyte type control; for [3H]CQ transport (% PfCRTDd2 control), trans-stimulation, PfCRTEcu1110: PfCRT-mediated component (background subtracted), sheet title says normalised to PfCRTDd2 control, mean ± SEM, SEM
T1 sequence (Q9N623 whole entry A220S/I356L/K76T/N326D): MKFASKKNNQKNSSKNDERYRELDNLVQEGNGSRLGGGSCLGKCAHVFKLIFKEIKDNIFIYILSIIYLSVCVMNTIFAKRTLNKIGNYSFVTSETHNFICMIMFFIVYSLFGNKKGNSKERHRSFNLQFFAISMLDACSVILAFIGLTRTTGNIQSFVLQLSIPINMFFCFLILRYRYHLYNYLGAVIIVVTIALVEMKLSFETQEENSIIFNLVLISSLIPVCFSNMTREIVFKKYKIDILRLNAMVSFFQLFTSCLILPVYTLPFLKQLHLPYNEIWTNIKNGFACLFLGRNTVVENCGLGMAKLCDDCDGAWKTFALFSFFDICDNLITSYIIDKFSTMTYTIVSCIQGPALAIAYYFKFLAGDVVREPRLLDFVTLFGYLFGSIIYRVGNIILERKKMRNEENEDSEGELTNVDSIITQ
Description: (§1) Unless specified otherwise, the transport assays were conducted over 1.5 h at 27.5 °C and the reaction buffer was ND96 (96 mM NaCl, 2 mM KCl, 1 mM MgCl2, 1.8 mM CaCl2, 10 mM MES and 10 mM Tris-base) at pH 5.5.
(§2) The intracellular concentrations were calculated using previous estimates of the volume of stage V–VI oocytes (~400 nL[60]). […] The oocytes were injected with VF-6 suspended in 25 nL ND96 buffer adjusted to pH 5.0, 5.5, 6.0 or 7.0, which corresponded to the injection of 2.5–250 fmol of H^+. The Na^+-dependence of the trans-stimulatory effect of VF-6 was assessed by injecting the oocytes with VF-6 suspended in ND96 buffer (pH 5.5) or a Na^+-free version of this buffer (the Na^+ was replaced with choline).
(§3) At least four independent experiments were performed (on different days and using oocytes from different frogs), and within each experiment measurements were made from ten oocytes per treatment.

[2] = molecular target: T2, PfCRT^Dd2 (Plasmodium falciparum, UniProt Q9N623, A220S/I356T/K76T/M74I/N326S/N75E/Q271E/R371I); experiment: cell-based; details: for PfCRT-mediated [3H]CQ transport, trans-stimulation (% PfCRTDd2 control): PfCRTDd2 oocytes, normalised to oocyte type control; for [3H]CQ transport (% PfCRTDd2 control), trans-stimulation, PfCRTDd2: PfCRT-mediated component (background subtracted), mean ± SEM, SEM
T2 sequence (Q9N623 whole entry A220S/I356T/K76T/M74I/N326S/N75E/Q271E/R371I): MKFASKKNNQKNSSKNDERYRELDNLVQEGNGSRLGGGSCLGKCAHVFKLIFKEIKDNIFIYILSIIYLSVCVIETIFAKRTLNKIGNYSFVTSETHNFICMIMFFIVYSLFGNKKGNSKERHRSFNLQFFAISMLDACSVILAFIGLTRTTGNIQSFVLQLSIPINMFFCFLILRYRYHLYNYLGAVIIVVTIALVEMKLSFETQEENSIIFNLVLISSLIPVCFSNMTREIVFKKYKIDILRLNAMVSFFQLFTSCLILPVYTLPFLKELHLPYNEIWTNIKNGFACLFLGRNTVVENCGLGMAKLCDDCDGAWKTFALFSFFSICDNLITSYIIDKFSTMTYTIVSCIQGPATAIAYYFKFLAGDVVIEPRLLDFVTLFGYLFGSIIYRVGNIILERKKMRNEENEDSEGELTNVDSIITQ
Description: as §1, §2, §3

[3] = molecular target: PfCRT^3D7 (Plasmodium falciparum, UniProt Q8IBZ9); experiment: cell-based; details: PfCRT3D7 oocytes, normalised to oocyte type control
Sequence of PfCRT^3D7 (Q8IBZ9 59-398): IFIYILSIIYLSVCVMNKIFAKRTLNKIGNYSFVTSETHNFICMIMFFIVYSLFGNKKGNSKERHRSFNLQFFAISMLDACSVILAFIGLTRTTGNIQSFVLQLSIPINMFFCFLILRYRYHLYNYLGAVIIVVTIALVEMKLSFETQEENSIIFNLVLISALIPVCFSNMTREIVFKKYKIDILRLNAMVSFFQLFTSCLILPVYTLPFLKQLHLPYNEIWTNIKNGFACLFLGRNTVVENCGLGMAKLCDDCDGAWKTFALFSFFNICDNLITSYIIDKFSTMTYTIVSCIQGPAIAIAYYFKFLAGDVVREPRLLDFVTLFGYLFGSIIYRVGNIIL
Description: as §1, §2, §3

[4] = molecular target: T1, PfCRT^Ecu1110; experiment: [3H]CQ uptake into Xenopus oocytes, cis-inhibition by unlabelled solute; details: for PfCRT-mediated [3H]CQ transport, cis-inhibition (% PfCRTEcu1110 control): PfCRTEcu1110 oocytes, background [3H]CQ accumulation subtracted, normalised to oocyte type control; for [3H]CQ transport (% PfCRTEcu1110 control), cis-inhibition, PfCRTEcu1110: PfCRT-mediated component (background subtracted), sheet title says normalised to PfCRTDd2 control, mean ± SEM, SEM
Description: (§4) The orientation of PfCRT in the parasite’s DV membrane, and also in the oocyte plasma membrane, is such that its N- and C-termini extend into the cytosol. The oocytes were suspended in a reaction buffer adjusted to pH 5.5 to mimic the pH of the DV lumen[1],[2]. In this scenario, the transport of a substrate via PfCRT from the acidic extracellular solution into the oocyte cytosol[15] is analogous to the parasite’s PfCRT-mediated efflux of a substrate from the acidic DV and into the cytosol. Unless specified otherwise, this is the direction in which substrate transport was measured in the oocyte assays.
as §1
(§5) Ten oocytes were washed twice with the relevant ND96 buffer. […] The assay was terminated by removing the reaction buffer and washing the oocytes with ice-cold ND96 buffer. The oocytes were lysed in 10% (w/v) sodium dodecyl sulfate (SDS) and the radioactivity accumulated within each oocyte was measured with a MicroBeta^2 microplate liquid scintillation analyser (PerkinElmer).
as §3

[5] = molecular target: T2, PfCRT^Dd2; experiment: as above; details: PfCRTDd2 oocytes, background [3H]CQ accumulation subtracted, normalised to oocyte type control
Description: as §4, §1, §5, §3

[6] = [test solute]i = 5 mM (intracellular)
[7] = [test solute]i = 45 mM (intracellular; 30 mM for some solutes due to solubility)
[8] = [test solute]i = 5 mM (injected)
[9] = [test solute]i = 45 mM (30 mM for some solutes due to solubility)

Row | Substance | PfCRT-mediated [3H]CQ transport, trans-stimulation (% PfCRTEcu1110 control) [1, 6] [% PfCRTEcu1110 control] | PfCRT-mediated [3H]CQ transport, trans-stimulation (% PfCRTEcu1110 control) [1, 7] [% PfCRTEcu1110 control] | [3H]CQ transport (% PfCRTDd2 control), trans-stimulation, PfCRTEcu1110 [1, 8] [% PfCRTEcu1110 control] | [3H]CQ transport (% PfCRTDd2 control), trans-stimulation, PfCRTEcu1110 [1, 9] [% PfCRTEcu1110 control] | PfCRT-mediated [3H]CQ transport, trans-stimulation (% PfCRTDd2 control) [2, 6] [% PfCRTDd2 control] | PfCRT-mediated [3H]CQ transport, trans-stimulation (% PfCRTDd2 control) [2, 7] [% PfCRTDd2 control] | [3H]CQ transport (% PfCRTDd2 control), trans-stimulation, PfCRTDd2 [2, 8] [% PfCRTDd2 control] | [3H]CQ transport (% PfCRTDd2 control), trans-stimulation, PfCRTDd2 [2, 9] [% PfCRTDd2 control] | PfCRT-mediated [3H]CQ transport, trans-stimulation (% PfCRT3D7 control) [3, 6] [% PfCRT3D7 control] | PfCRT-mediated [3H]CQ transport, trans-stimulation (% PfCRT3D7 control) [3, 7] [% PfCRT3D7 control] | PfCRT-mediated [3H]CQ transport, cis-inhibition (% PfCRTEcu1110 control) ([4]; [test solute] = 0.5 mM) | PfCRT-mediated [3H]CQ transport, cis-inhibition (% PfCRTEcu1110 control) ([4]; [test solute] = 1 mM) | PfCRT-mediated [3H]CQ transport, cis-inhibition (% PfCRTEcu1110 control) ([4]; [test solute] = 2 mM) | [3H]CQ transport (% PfCRTEcu1110 control), cis-inhibition, PfCRTEcu1110 ([4]; [test solute] = 0.5 mM) [% PfCRTEcu1110 control] | [3H]CQ transport (% PfCRTEcu1110 control), cis-inhibition, PfCRTEcu1110 ([4]; [test solute] = 2 mM) [% PfCRTEcu1110 control] | PfCRT-mediated [3H]CQ transport, cis-inhibition (% PfCRTDd2 control) ([5]; [test solute] = 0.5 mM) | PfCRT-mediated [3H]CQ transport, cis-inhibition (% PfCRTDd2 control) ([5]; [test solute] = 1 mM) | PfCRT-mediated [3H]CQ transport, cis-inhibition (% PfCRTDd2 control) ([5]; [test solute] = 2 mM) | [3H]CQ transport (% PfCRTEcu1110 control), cis-inhibition, PfCRTEcu1110 ([4]; [test solute] = 1 mM) [% PfCRTEcu1110 control]
1 | HVDDMPN [HN-7] | 132 ± 4.3 | 140 ± 4.2 | 40 ± 2.5 | 42 ± 2.4 | 100 ± 3.2 | 98 ± 3.5 | 100 ± 3.2 | 98 ± 3.5 | 142 ± 4.5 | 187 ± 4.5 | 36 ± 1.6 | 31 ± 3.5 | 21 ± 1.3 | 11 ± 0.6 | 7.0 ± 0.05 | 37 ± 1.7 | 20 ± 0.5 | 9.2 ± 1.1 | 
2 | VDEVGG [VG-6] | 128 ± 4.2 | 139 ± 4.6 | 39 ± 1.5 | 42 ± 2.6 | 102 ± 4.7 | 112 ± 0.9 | 102 ± 4.7 | 112 ± 0.9 | 140 ± 4.4 | 190 ± 3.6 | 61 ± 3.5 | 51 ± 2.6 | 39 ± 1.4 |  | 12 ± 0.02 | 55 ± 1.8 | 44 ± 2.7 | 38 ± 1.3 | 16 ± 0.1
3 | VHLT [VT-4] | 99 ± 3.2 | 97 ± 3.6 | 30 ± 1.3 | 29 ± 1.5 | 97 ± 4.6 | 98 ± 3.2 | 97 ± 4.6 | 98 ± 3.2 | 97 ± 3.2 | 95 ± 4.7 | 56 ± 4.1 | 39 ± 4.1 | 27 ± 1.4 | 18 ± 0.3 | 9.0 ± 0.2 | 51 ± 2.0 | 39 ± 2.8 | 16 ± 0.4 | 
4 | HVDPENF [HF-7] | 131 ± 3.7 | 138 ± 4.1 | 40 ± 2.1 | 42 ± 1.5 | 100 ± 1.9 | 112 ± 1.7 | 100 ± 1.9 | 112 ± 1.7 | 140 ± 5.2 | 189 ± 6.2 | 41 ± 1.8 | 31 ± 3.1 | 22 ± 0.4 |  | 7.0 ± 0.01 | 40 ± 2.3 | 31 ± 2.3 | 18 ± 0.6 | 
